Here are results for 22 molecules from US9464084B2, “P2X7 modulators” (Janssen Pharmaceutica NV, priority 2013, dated 2016).

Structures are written as SMILES.

The target in experiment [1] is T1, P2X7 (Homo sapiens (Human), UniProt Q99572). The experiment can be described thus: P2X7 antagonism in human PBMCs (LPS + Bz-ATP induced IL-1β release, ELISA).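 As to all read-outs here: PBMCs from donor human blood, with a further 1.5 h incubation of the cells in the assay.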 The class given is cell-based. As to conditions: LPS 30 ng/ml, Bz-ATP 0.5 mM; for PBMC 10 μM (% control): compound 10 μM; for PBMC 1 μM (% control): compound 1 μM.
Description: Human blood was collected using a blood donor program. PBMCs were isolated from blood using a Ficoll density gradient technique. Briefly, blood was laid on Ficoll solution and centrifuged at RT for 20 minutes at 2000 rpm. The buffy layer (between red blood cells and plasma) was carefully collected by aspiration, washed with PBS and centrifuged again at 1500 rpm for 15 minutes. The resulting cell pellet was washed and plated on 96 well-plates for experiments. For the Mouse/Human Whole Blood experiments, 150 μl of either mouse or human blood was platted on 96 well-plates. Lipopolysaccharide (LPS) (30 ng/ml) was added to each well and incubated for 1 hour. Test compounds were then added and incubated for 30 minutes. The P2X7 agonist, 2′(3′)-O-(4-benzoylbenzoyl) adenosine 5′ triphosphate (Bz-ATP) was then added at a final concentration of 0.5 mM (PBMC) or 1 mM (blood). Cells were incubated for an additional 1.5 hours. At that point, supernatant was collected and stored for IL-1β assay using manufacturer's protocol for enzyme-linked immunosorbent assay (ELISA). Data was expressed as percent control, where control is defined as the difference in IL-1β release in LPS+Bz-ATP samples and LPS only samples. Data was plotted as response (% control) versus concentration to generate IC50 values.
Experiment [2] concerns the target T1, P2X7. The experiment can be described thus: Radioligand binding, tritiated A-804598, human P2X7-1321N1 cell membranes.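 Also: ki obtained from the binding IC50 after correction for tracer concentration and tracer affinity.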 As to conditions: 1 hour at 4° C.
Description: On the day of the experiment, cell membrane preparations were made according to standard published methods. […] The assay was terminated by filtration (GF/B filters pre-soaked with 0.3% PEI) and washed with washing buffer (Tris-HCl 50 mM). The IC50 generated in the binding assay was corrected for tracer concentration and affinity of the tracer to derive at the affinity (Ki) of the test compounds.
Experiment [3] addresses T1, P2X7. The experiment in a line: Ca2+ flux (FLIPR) in 1321N1 cells expressing recombinant human P2X7 channel.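 Also: Calcium-4 dye-loaded cells exposed to compound for 30 min before agonist addition, fluorescence change read 180 s after agonist.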 The class given is cell-based. As to conditions: 250 μM BzATP.
In a further experiment the target is rat P2X7 (Rattus norvegicus (Rat), UniProt Q64663). The experiment can be described thus: Ca2+ flux (FLIPR) in 1321N1 cells expressing recombinant rat P2X7 channel.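 Also: Calcium-4 dye fluorescence change read 180 s after agonist addition, following 30 min cell preincubation with test compound.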 The class given is cell-based. The note with it: 250 μM BzATP. On the technique in general: Calcium flux is commonly read through the fluorescence of an indicator in the cells.
Chain of rat P2X7 (Q64663 whole entry): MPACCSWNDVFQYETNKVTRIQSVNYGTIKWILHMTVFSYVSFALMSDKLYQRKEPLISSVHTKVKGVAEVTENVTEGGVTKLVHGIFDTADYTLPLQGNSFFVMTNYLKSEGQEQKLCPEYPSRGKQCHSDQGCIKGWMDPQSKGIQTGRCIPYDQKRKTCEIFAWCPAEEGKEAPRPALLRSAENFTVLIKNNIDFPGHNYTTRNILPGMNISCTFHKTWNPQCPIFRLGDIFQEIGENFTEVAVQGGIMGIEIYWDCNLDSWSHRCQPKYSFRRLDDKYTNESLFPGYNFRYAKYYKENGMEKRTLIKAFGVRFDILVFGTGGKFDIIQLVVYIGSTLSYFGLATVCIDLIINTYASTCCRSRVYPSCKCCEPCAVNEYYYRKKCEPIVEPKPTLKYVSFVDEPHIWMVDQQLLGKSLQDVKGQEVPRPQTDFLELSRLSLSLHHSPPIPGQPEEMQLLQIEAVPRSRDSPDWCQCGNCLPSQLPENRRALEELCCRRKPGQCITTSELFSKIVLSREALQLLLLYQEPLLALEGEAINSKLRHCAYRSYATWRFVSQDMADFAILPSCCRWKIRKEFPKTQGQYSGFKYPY

T1 sequence (Q99572 whole entry): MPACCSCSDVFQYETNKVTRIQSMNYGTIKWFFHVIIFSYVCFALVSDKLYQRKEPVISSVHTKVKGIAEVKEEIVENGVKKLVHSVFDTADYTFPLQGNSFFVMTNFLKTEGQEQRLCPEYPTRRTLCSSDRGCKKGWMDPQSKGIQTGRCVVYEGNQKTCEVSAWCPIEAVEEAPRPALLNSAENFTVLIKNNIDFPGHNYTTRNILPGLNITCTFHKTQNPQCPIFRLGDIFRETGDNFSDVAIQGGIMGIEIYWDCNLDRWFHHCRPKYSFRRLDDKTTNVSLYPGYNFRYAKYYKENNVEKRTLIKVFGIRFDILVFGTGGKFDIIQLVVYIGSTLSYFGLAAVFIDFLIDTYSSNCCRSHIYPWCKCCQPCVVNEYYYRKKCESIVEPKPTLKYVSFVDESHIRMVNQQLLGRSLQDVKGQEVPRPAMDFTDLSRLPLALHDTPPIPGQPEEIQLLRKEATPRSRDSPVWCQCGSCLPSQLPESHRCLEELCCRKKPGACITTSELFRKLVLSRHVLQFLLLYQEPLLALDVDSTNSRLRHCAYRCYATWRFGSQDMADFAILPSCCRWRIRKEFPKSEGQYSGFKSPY

With `C[C@H]1c2nnn(-c3cccc(F)n3)c2CCN1C(=O)c1cccc(C(F)(F)F)c1Cl` (single isomer, unassigned) [Example 147, (S*)-(2-Chloro-3-(trifluoromethyl)phenyl)(1-(6-fluoropyridin-2-yl)-4-methyl-6,7-dihydro-1H-[1,2,3]triazolo[4,5-c]pyridin-5(4H)-yl)methanone], at P2X7 [1], the “PBMC 10 μM (% control)” value is −8.9 % control. Further, on P2X7 [2], the affinity, expressed as Ki, was 39.8 nM. For the same molecule, the IC50 – broadly, the concentration that gives 50% inhibition – was determined as 11.3 nM on P2X7 [3] and 507 nM on rat P2X7.
On to `C[C@H]1Cc2c(nnn2-c2ncccn2)CN1C(=O)c1cccc(C(F)(F)F)c1Cl` (single isomer, unassigned) [Example 222, (6S*)-5-{[2-Chloro-3-(trifluoromethyl)phenyl]carbonyl}-6-methyl-1-pyrimidin-2-yl-4,5,6,7-tetrahydro-1H-[1,2,3]triazolo[4,5-c]pyridine], for which the “PBMC 10 μM (% control)” value at P2X7 [1] was 11.8 % control. Moreover, at P2X7 [2], the Ki (usually the equilibrium dissociation constant of an inhibitor or competing ligand from its target) is 25.1 nM. For the same molecule, the IC50 at P2X7 [3] is 1.1 nM; at rat P2X7 it was 1 nM.
For `Cc1cccc(-n2nnc3c2CCN(C(=O)c2cccc(C(F)(F)F)c2Cl)[C@H]3C)n1` (single isomer, unassigned) [Example 227, (S*)-(2-chloro-3-(trifluoromethyl)phenyl)(4-methyl-1-(6-methylpyridin-2-yl)-6,7-dihydro-1H-[1,2,3]triazolo[4,5-c]pyridin-5(4H)-yl)methanone], in that order: −0.4 % control, 20 nM, 7.2 nM and 10.2 nM.
Consider `C[C@@H]1c2nnn(-c3ncccn3)c2CCN1C(=O)c1cccc(C(F)(F)F)c1F` (single isomer, unassigned) [Example 271, (R*)-(2-fluoro-3-(trifluoromethyl)phenyl)(4-methyl-1-(pyrimidin-2-yl)-6,7-dihydro-1H-[1,2,3]triazolo[4,5-c]pyridin-5(4H)-yl)methanone], for which the “PBMC 10 μM (% control)” value at P2X7 [1] is on record as −3.7 % control. This molecule showed an inhibitory constant (Ki) on P2X7 [2] of 5.9 nM. Also, the IC50 turned out to be 3.3 nM on P2X7 [3] and 11.1 nM at rat P2X7.
Consider `O=C(c1cccc(C(F)(F)F)c1Cl)N1CCc2c(ncn2-c2ccccc2)C1` [Example 2, (2-Chloro-3-(trifluoromethyl)phenyl)(1-phenyl-6,7-dihydro-1H-imidazo[4,5-c]pyridin-5(4H)-yl)methanone], for which the “PBMC 1 μM (% control)” value on P2X7 [1] amounted to 7.9 % control. In addition, on P2X7 [2], the inhibition constant (Ki) is 87.1 nM. Moreover, the IC50 on P2X7 [3] came to 18.4 nM; on rat P2X7, 1940 nM.
For `O=C(c1cccc(Cl)c1Cl)N1CCc2c(ncn2-c2ccccn2)C1` [Example 4, (2,3-Dichlorophenyl)(1-(pyridin-2-yl)-6,7-dihydro-1H-imidazo[4,5-c]pyridin-5(4H)-yl)methanone], the “PBMC 10 μM (% control)” value on P2X7 [1] is recorded as −3.7 % control. Further, affinity at P2X7 [2] was put at a Ki of 25.1 nM. In addition, the values for the IC50 on P2X7 [3] and at rat P2X7 were 46.5 nM and 2570 nM, respectively.
The matching figures for `O=C(c1cccc(C(F)(F)F)c1Cl)N1CCc2c(ncn2-c2ccn[nH]2)C1` [Example 5, (1-(1H-Pyrazol-5-yl)-6,7-dihydro-1H-imidazo[4,5-c]pyridin-5(4H)-yl)(2-chloro-3-(trifluoromethyl)phenyl)methanone]: 11.6 % control, 31.6 nM, 12.4 nM and 324 nM.
For the molecule `CC1c2ncn(-c3ccc(F)cc3)c2CCN1C(=O)c1cccc(C(F)(F)F)c1F` (stereo not drawn) [Example 20, (2-Fluoro-3-(trifluoromethyl)phenyl)(1-(4-fluorophenyl)-4-methyl-6,7-dihydro-1H-imidazo[4,5-c]pyridin-5(4H)-yl)methanone], at P2X7 [1], the “PBMC 10 μM (% control)” value worked out at 8.6 % control. On P2X7 [2], this molecule yielded an inhibitory constant (Ki) of 501 nM. Moreover, the IC50 was found to be 931 nM at P2X7 [3] and 2370 nM on rat P2X7.
Take `CCOC(=O)C1c2ncn(-c3ccccn3)c2CCN1C(=O)c1cccc(C(F)(F)F)c1Cl` (stereo not drawn) [Example 24, Ethyl 5-(2-chloro-3-(trifluoromethyl)benzoyl)-1-(pyridin-2-yl)-4,5,6,7-tetrahydro-1H-imidazo[4,5-c]pyridine-4-carboxylate]: at P2X7 [1], the “PBMC 1 μM (% control)” value turned out to be 2.9 % control. This molecule also had an inhibitory constant (Ki) on P2X7 [2] of 91.2 nM. The half-maximal inhibitory concentration (IC50) was 35 nM on P2X7 [3] and 34.2 nM on rat P2X7.
For `CCOC(=O)C1c2ncn(-c3ccccn3)c2CCN1C(=O)c1cccc(Cl)c1Cl` (stereo not drawn) [Example 25, Ethyl 5-(2,3-dichlorobenzoyl)-1-(pyridin-2-yl)-4,5,6,7-tetrahydro-1H-imidazo[4,5-c]pyridine-4-carboxylate], in that order: 9.7 % control, 74.1 nM, 111 nM and 3270 nM.
Take `CCOC(=O)C1c2ncn(-c3ccccc3)c2CCN1C(=O)c1cccc(C(F)(F)F)c1Cl` (stereo not drawn) [Example 26, Ethyl 5-(2-chloro-3-(trifluoromethyl)benzoyl)-1-phenyl-4,5,6,7-tetrahydro-1H-imidazo[4,5-c]pyridine-4-carboxylate]: the “PBMC 1 μM (% control)” value at P2X7 [1] amounted to 14.0 % control. Besides, the Ki on P2X7 [2] was 85.1 nM. Besides, the figures for the 50% inhibitory concentration (IC50) at P2X7 [3] and on rat P2X7 were 9.8 nM and 71 nM, respectively.
As to `CCOC(=O)C1c2ncn(-c3cnccn3)c2CCN1C(=O)c1cccc(Cl)c1Cl` (stereo not drawn) [Example 29, Ethyl 5-[(2,3-dichlorophenyl)carbonyl]-1-pyrazin-2-yl-4,5,6,7-tetrahydro-1H-imidazo[4,5-c]pyridine-4-carboxylate], on P2X7 [1], the “PBMC 1 μM (% control)” value worked out at 34.7 % control. Besides, on P2X7 [2], the affinity corresponds to a Ki of 38 nM. Moreover, the figures for the IC50 on P2X7 [3] and on rat P2X7 were 79.8 nM and 2070 nM, respectively.
For `CN(C)CC1c2ncn(-c3ccccn3)c2CCN1C(=O)c1cccc(C(F)(F)F)c1Cl` (stereo not drawn) [Example 31, 1-(5-{[2-Chloro-3-(trifluoromethyl)phenyl]carbonyl}-1-pyridin-2-yl-4,5,6,7-tetrahydro-1H-imidazo[4,5-c]pyridin-4-yl)-N,N-dimethylmethanamine], in that order: 50.8 % control, 316 nM, 156 nM and 107 nM.
The matching figures for `CN(C)C(=O)C1c2ncn(-c3ccccn3)c2CCN1C(=O)c1cccc(C(F)(F)F)c1Cl` (stereo not drawn) [Example 34, 5-{[2-Chloro-3-(trifluoromethyl)phenyl]carbonyl}-N,N-dimethyl-1-pyridin-2-yl-4,5,6,7-tetrahydro-1H-imidazo[4,5-c]pyridine-4-carboxamide]: 29.8 % control, 631 nM, 158 nM and 158 nM.
The matching figures for `O=C(C1c2ncn(-c3ccccn3)c2CCN1C(=O)c1cccc(C(F)(F)F)c1Cl)N1CCC1` (stereo not drawn) [Example 35, 4-(Azetidin-1-ylcarbonyl)-5-{[2-chloro-3-(trifluoromethyl)phenyl]carbonyl}-1-pyridin-2-yl-4,5,6,7-tetrahydro-1H-imidazo[4,5-c]pyridine]: 31.6 % control, 316 nM, 316 nM and 316 nM.
Regarding `O=C(c1cccc(C(F)(F)F)c1Cl)N1CCc2c(nnn2-c2cccc(F)n2)C1` [Example 135, (2-Chloro-3-(trifluoromethyl)phenyl)(1-(6-fluoropyridin-2-yl)-6,7-dihydro-1H-[1,2,3]triazolo[4,5-c]pyridin-5(4H)-yl)methanone], the “PBMC 10 μM (% control)” value on P2X7 [1] is reported as 1.7 % control. On P2X7 [2], affinity was put at a Ki of 100 nM. Moreover, the IC50 on P2X7 [3] came out at 48.2 nM.
The matching figures for `CC1Cc2c(nnn2-c2cc(F)ccn2)CN1C(=O)c1cccc(C(F)(F)F)c1Cl` (stereo not drawn) [Example 176, (2-Chloro-3-(trifluoromethyl)phenyl)(1-(4-fluoropyridin-2-yl)-6-methyl-6,7-dihydro-1H-[1,2,3]triazolo[4,5-c]pyridin-5(4H)-yl)methanone]: 7.3 % control, 31.6 nM and 8 nM.
Consider `CC1c2nnn(-c3ncco3)c2CCN1C(=O)c1cccc(C(F)(F)F)c1Cl` (stereo not drawn) [Example 250], for which the “PBMC 10 μM (% control)” value at P2X7 [1] is −1.3 % control. Further, the Ki on P2X7 [2] was 39.8 nM. For the same molecule, the IC50 at P2X7 [3] came out at 8.6 nM.
On to `CC1c2ncn(-c3ccc(F)cn3)c2CCN1C(=O)c1ccc(F)c(Cl)c1Cl` (stereo not drawn) [Example 261, (2,3-dichloro-4-fluorophenyl)(1-(5-fluoropyridin-2-yl)-4-methyl-6,7-dihydro-1H-imidazo[4,5-c]pyridin-5(4H)-yl)methanone], for which the “PBMC 10 μM (% control)” value on P2X7 [1] is −3.1 % control. Moreover, affinity on P2X7 [2] was put at a Ki of 36.3 nM. For the same molecule, on P2X7 [3], the half-maximal inhibitory concentration (IC50) turned out to be 19.4 nM.
For `Cc1c(C(=O)N2CCc3c(ncn3-c3ccc(F)cn3)C2C)cccc1C(F)(F)F` (stereo not drawn) [Example 263, (1-(5-fluoropyridin-2-yl)-4-methyl-6,7-dihydro-1H-imidazo[4,5-c]pyridin-5(4H)-yl)(2-methyl-3-(trifluoromethyl)phenyl)methanone], in that order: −1.6 % control, 55 nM and 16.1 nM.
The matching figures for `Cc1c(C(=O)N2CCc3c(ncn3-c3ccc(F)cn3)C2)cccc1C(F)(F)F` [Example 312, (1-(5-fluoropyridin-2-yl)-6,7-dihydro-1H-imidazo[4,5-c]pyridin-5(4H)-yl)(2-methyl-3-(trifluoromethyl)phenyl)methanone]: 9.5 % control, 39.8 nM and 157 nM.
The matching figures for `Cc1nc2c(n1-c1ccccc1)CCN(C(=O)c1cccc(Cl)c1Cl)C2` [Example 331, (2,3-dichlorophenyl)(2-methyl-1-phenyl-6,7-dihydro-1H-imidazo[4,5-c]pyridin-5(4H)-yl)methanone]: −11.0 % control, 178 nM and 148 nM.
